Test results published in US9675702B2, “Methods and compositions for the sustained release of chromium” (JDS Therapeutics, LLC, priority 2007, dated 2017).
Like-named read-outs stand apart in the source and are kept apart here.

Key:
Wistar rats = test: 12-week chromium supplementation in water of rats fed normal or high fat diet; serum glucose, cholesterol, triglycerides, free fatty acids; format: in vivo; conditions: for serum triglyceride levels / free fatty acid levels / total serum cholesterol levels / serum glucose levels: 12 weeks; for total serum cholesterol levels: rats fed a normal diet (FIG. 3A); for reduction in serum glucose levels compared with other chromium supplementation: same total elemental chromium; for serum glucose levels: 1.43 μg chromium in water
Experimental: Wistar rats were reared at the temperature of (22±2° C.), humidity (55±5%) and a 12/12 h light/dark cycle. Pellet food and water were provided ad libitum. Rats were randomly assigned to one of eight treatment groups. Group 1: Control rats were fed standard diet (12% of calories as fat) for 12 weeks. Group 2: Rats were fed standard diet with chromium picolinate ([…] 1.43 μg chromium) included in the water for 12 weeks. Group 3: […] Group 4: […] Group 5: Rats were fed high fat diet (40% of calories as fat) for 12 weeks. Group 6: Rats were fed high-fat diet (40% of calories as fat) and with chromium picolinate (14.3 μg, providing 1.43 μg chromium) included in the water for 12 weeks. Group 7: […] Group 8: […] Bodyweight, serum glucose, composite insulin sensitivity index (CISI), serum cholesterol, serum triglycerides and serum free fatty acid levels were measured. The baseline levels for the control rats (no chromium supplementation) that were fed normal or high fat diets are shown in Table 1, below. Serum glucose levels, serum cholesterol levels, serum triglyceride levels, and free fatty acid levels were measured in all groups after twelve weeks.

skeletal muscle cells = test: Glucose uptake ([3H]-deoxyglucose) in cultured skeletal muscle cells with or without insulin; format: cell-based; conditions: insulin-stimulated cells; versus cultures without chromium supplementation
Experimental: The following example describes experiments that compared the effects of chromium supplementation in the form of chromium picolinate versus a combination of chromium picolinate:chormium histidinate (1:1 elemental chromium) on glucose uptake in skeletal muscle cells. The amounts of chromium picolinate and the combination were adjusted so as to provide equimolar amounts of elemental chromium. […] To assess glucose uptake, [^3H]C-deoxyglucose was added to cultures of skeletal muscle, in media with or without insulin and with or without the indicated chromium supplementation. Uptake of the labeled glucose by the cells was calculated.

rats = conditions: cited from earlier work
[1] = cited from earlier work
[2] = rats fed a high fat diet (FIG. 4B)
[3] = rats fed a high fat diet (FIG. 5B)
[4] = rats fed a normal diet (FIG. 4A)
[5] = rats fed a normal diet (FIG. 5A)

Compound	serum triglyceride levels (Wistar rats; [2])	free fatty acid levels (Wistar rats; [3])	total serum cholesterol levels (Wistar rats)	serum triglyceride levels (Wistar rats; [4])	free fatty acid levels (Wistar rats; [5])	also measured
chromium picolinate	significant decrease	significant decrease	significant decrease	significant decrease	significant decrease	glucose uptake (skeletal muscle cells): stimulated glucose uptake; toxic effects (rats; rat, in vivo): without toxic effects
[Cl][Cr]([Cl])[Cl] [chromium chloride]	–	–	–	–	–	toxic effects (rats; rats, levels several thousand times the upper limit of the ESADDI for chromium for humans (based on body weight)): without toxic effects
chromium histidinate	significant decrease	significant decrease	significant decrease	significant decrease	significant decrease	reduction in serum glucose levels compared with other chromium supplementation (Wistar rats; high fat diet rats (FIG. 2B)): significantly greater degree than chromium picolinate; serum glucose levels (Wistar rats; high-fat fed rats): decreased serum glucose levels; reduction in serum glucose levels compared with other chromium supplementation (Wistar rats; normal diet rats (FIG. 2A)): significantly greater degree than chromium picolinate; serum glucose levels (Wistar rats; normal diet rats): decreased serum glucose levels
N[C@@H](Cc1c[nH]cn1)C(=O)O [histidine]	–	–	–	–	–	pKa [1]: ~6.0
